Experimental data: patent publication US12144881B2, “Cosmetic composition containing α-mangostin, method for preparation, and uses thereof” (priority 2018, dated 2024)

Key:
[1] = Oxygen Radical Absorbance Capacity (ORAC) assay against oxide anion; details: trolox equivalent
Procedure: (§1) Test Method: Oxygen Radical Absorbance Capacity (ORAC) Assay Specific method: An extraction solution containing a solubilizing compound was prepared, the sample was added to the extraction solution to extract the antioxidants present in the sample, and a fluorescent probe was added to the extract, a free radical generator was added to the extract, to detect the decay of the fluorescence intensity of the probe in the sample over time, and calculate the oxidation resistance of the sample based on the decay of the fluorescence intensity of the probe in the sample. The results of ORAC are expressed as micromole trolox equivalent (μmole TE)/gram. Trolox is a vitamin E analog, which is an antioxidant standard substance.

[2] = Photolysis of butyl methoxydibenzoylmethane under sunlight and its inhibition by α-mangostin (absorbance at 357 nm); type: physicochemical; details: for M value: M=Bi/Ai, butyl methoxydibenzoylmethane remaining with α-mangostin vs control
Procedure: Instrument and equipment: Model 751-GW spectrophotometer; and FA1004 electronic balance. Reagents: butyl methoxydibenzoylmethane, from Shanghai SIMP Co., Ltd.; and an α-mangostin sample. • (6) Formulation of standard stock solutions of butyl methoxydibenzoylmethane and the sample: 20.0 mg of butyl methoxydibenzoylmethane and α-mangostin were weighed separately, and diluted with a specific mixed solvent (an acetone-water mixed solvent with a ratio by volume of acetone to water of 5:1, hereinafter referred to as mixed solvent) to a volume of 10 ml. • (7) Formulation of reference solutions of butyl methoxydibenzoylmethane and the sample: The mixed solvent was used as the reference solution of butyl methoxydibenzoylmethane. 0.1 ml of the standard stock solution of the α-mangostin sample was drawn, and diluted with the mixed solvent to a volume of 10 ml, as the reference solution of the sample. • (8) Formulation of standard working solutions (20 μg/ml) of butyl methoxydibenzoylmethane and the sample: 0.1 ml of the standard stock solution of butyl methoxydibenzoylmethane was drawn and diluted with the mixed solvent to a volume of 10 ml. 0.1 ml aliquots of the standard stock solution of the α-mangostin sample were drawn separately, and added separately to 0.1 ml aliquots of the standard stock solution of butyl methoxydibenzoylmethane, and then diluted with the mixed solvent to a volume of 10 ml. • (9) Reference solutions and standard working solutions of different concentrations of rutin were formulated according to Steps (2) and (3). • (10) Determination of the photolysis rate and photolysis inhibition rate of butyl methoxydibenzoylmethane: The absorbance of the standard working solution of butyl methoxydibenzoylmethane and the absorbance of butyl methoxydibenzoylmethane in the α-mangostin sample were measured at 357 nm. Then they were subjected to the sunlight exposure, and the absorbance thereof was measured every day. The photolysis rate, the photolysis inhibition rate and the M value of butyl methoxydibenzoylmethane were calculated according to the following formulas: % Photolysis rate=(A0−Ai)/A0×100% % Photolysis inhibition rate=[1−(B0−Bi)/(A0−Ai)]×100 M=Bi/Ai In the formulas, A0 is the absorbance of the standard working solution of butyl methoxydibenzoylmethane; Ai is the absorbance of the standard working solution of butyl methoxydibenzoylmethane after i days of light exposure; B0 is the absorbance of butyl methoxydibenzoylmethane in the standard working solution of the α-mangostin sample; Bi is the absorbance of butyl methoxydibenzoylmethane in the standard working solution of the α-mangostin sample after i days of light exposure; and M is the ratio of the amount of butyl methoxydibenzoylmethane remaining in the α-mangostin sample to the amount of butyl methoxydibenzoylmethane remaining in the control sample without the sample added. For the above α-mangostin sample and butyl methoxydibenzoylmethane, each was determined for the photolysis inhibition rate or the photolysis rate at the same exposure time, to obtain the curve of light exposure time vs. photolysis inhibition rate of the α-mangostin sample (FIG. 3) and the curve of light exposure time vs. photolysis rate of butyl methoxydibenzoylmethane (FIG. 2).

[3] = Oxygen Radical Absorbance Capacity (ORAC) assay against hydroxyl radicals; details: trolox equivalent
Procedure: as §1

[4] = Oxygen Radical Absorbance Capacity (ORAC) assay against peroxynitrite; details: trolox equivalent
Procedure: as §1

[5] = UV absorption spectra in the UV wavelength region; type: physicochemical; details: FIG. 1, UVB 290-320 nm and UVA 320-400 nm
Text: The present inventors tested the UV absorbance of α-mangostin, butyl methoxydibenzoylmethane and octyl salicylate in the UV wavelength region separately. […] Therefore, the α-mangostin has obvious advantages over the sunscreen agent octyl salicylate, and has a part of the absorption band which can be complementary to that of octyl salicylate, enhancing the UVB protection effect and increasing the SPF value.

[6] = Oxygen Radical Absorbance Capacity (ORAC) assay against peroxyl radicals; details: trolox equivalent
Procedure: as §1

Solubility in water = type: physicochemical; details: extracted α-mangostin
[7] = ORAC 5.0 (sum of five ORAC results); details: trolox equivalent
Procedure: Test Method: Oxygen Radical Absorbance Capacity (ORAC) Assay
as §1, with “Specific” for “Test Method: Oxygen Radical Absorbance Capacity (ORAC) Assay Specific”, “sample.” for “sample. The results of ORAC are expressed as micromole trolox equivalent (μmole TE)/gram. Trolox is a vitamin E analog, which is an antioxidant standard substance.”
Note: There are 5 main reactive oxygen species (ROS) in the human body: peroxy radicals, hydroxyl radicals, peroxynitrite, superoxide anions and singlet oxygen.
The results of ORAC are expressed as micromole trolox equivalent (μmole TE)/gram. Trolox is a vitamin E analog, which is an antioxidant standard substance.

[8] = Oxygen Radical Absorbance Capacity (ORAC) assay against single oxygen; details: trolox equivalent
Procedure: as §1

COc1c(O)cc2oc3cc(O)c(CC=C(C)C)c(O)c3c(=O)c2c1CC=C(C)C [α-mangostin]
ORAC against oxide anion [1]: 13,043 μmole TE/gram
M value ([2]; Day 1): 5.77
M value ([2]; Day 2): 12.31
inhibitory effect on the photolysis of butyl methoxydibenzoylmethane (in words) ([2]; sunlight): very good inhibitory effect
Inhibition rate of α-mangostin (photolysis inhibition rate) ([2]; sunlight, light exposure time 1 d, 20 μg/ml each): 84.3%
Inhibition rate of α-mangostin (photolysis inhibition rate) ([2]; sunlight, light exposure time 2 d): 82.9%
Inhibition rate of α-mangostin (photolysis inhibition rate) ([2]; sunlight, light exposure time 3 d): 82.1%
Inhibition rate of α-mangostin (photolysis inhibition rate) ([2]; sunlight, light exposure time 4 d): 80.5%
Inhibition rate of α-mangostin (photolysis inhibition rate) ([2]; sunlight, light exposure time 5 d): 76.4%
ORAC against hydroxyl radicals [3]: 9,055 μmole TE/gram
ORAC against peroxynitrite [4]: 404 μmole TE/gram
UV absorption (in words) [5]: relatively strong absorption from the UVB range of 290-320 nm to the UVA range of 320-400 nm
ORAC against peroxyl radicals [6]: 8,704 μmole TE/gram
solubility in water (in words) (Solubility in water): poor solubility in water
ORAC 5.0 (sum of above) [7]: 31,468 μmole TE/gram
ORAC against single oxygen [8]: 262 μmole TE/gram
